Each structure is given as a SMILES string. Activity calls are given as the source filed them. The calls are words filed in the database; no cut-off is given here.

For 13 compounds, inhibition and Activity results are on record in ChEMBL document CHEMBL3046851, “Synthesis of analogues of monic acids A and C: Potential herbicides and inhibitors of isoleucyl tRNA synthetase” (Bioorg Med Chem Lett, 1996).

The test system of the first test is Spinacia oleracea. The test can be described thus: Inhibition of Spinacia oleracea (spinach) chloroplast isoleucyl tRNA synthetase at 1 uM.
With `CCOC(=O)/C=C(\C)C[C@H]1OC[C@@H](C/C=C/[C@@H](C)[C@H](C)O)CO1`, the inhibition result is “inactive”.
For the compound `CCOC(=O)/C=C(\C)C[C@H]1OC[C@H](C/C=C/[C@@H](C)[C@H](C)O)CO1`, the inhibition result is “inactive”.
For the compound `CCOC(=O)/C=C(/C)C[C@H]1OC[C@H](C/C=C/[C@@H](C)[C@H](C)O)CO1`, the inhibition result was “inactive”.
The compound `C/C(=C\C(=O)OCCCCCCCCC(=O)O)C[C@@H]1OC[C@H](C[C@@H]2O[C@H]2[C@@H](C)[C@H](C)O)[C@@H](O)[C@H]1O` displayed an inhibition of 75%.
Still for that read-out and setting: as for `COC(=O)/C=C(\C)Cc1cccc(C/C=C/[C@@H](C)[C@H](C)O)c1`, the entry is “inactive”.
The same measure, in the same setting: as for `CCOC(=O)c1cccc(-c2cccc(C/C=C/[C@@H](C)[C@H](C)O)c2)c1`, the entry is “inactive”; as for `COC(=O)/C=C(\C)Cc1cccc(C[C@@H]2O[C@H]2[C@@H](C)[C@H](C)O)c1`, “inactive”.
Turning to `COC(=O)/C=C(/C)Cc1cccc(C[C@@H]2O[C@H]2[C@@H](C)[C@H](C)O)c1`, the inhibition entry was “inactive”.
Turning to `COC(=O)/C=C(/C)Cc1cccc(C/C=C/[C@@H](C)[C@H](C)O)c1`, the inhibition entry is “inactive”.
On to `COC(=O)/C=C(/C)Cc1cccc(C[C@H]2O[C@@H]2[C@@H](C)[C@H](C)O)c1`, for which the inhibition entry was “inactive”.
As to `CCOC(=O)c1cccc(-c2cccc(C[C@@H]3O[C@H]3[C@@H](C)[C@H](C)O)c2)c1`, the inhibition entry was “inactive”.
Take `COC(=O)/C=C(\C)Cc1cccc(C[C@H]2O[C@@H]2[C@@H](C)[C@H](C)O)c1`: the inhibition result was “inactive”.
In the case of `CCOC(=O)c1cccc(-c2cccc(C[C@H]3O[C@@H]3[C@@H](C)[C@H](C)O)c2)c1`, the inhibition result is “inactive”.

In another test the test system is Poaceae. In words: Herbicidal activity against Poaceae (grass) weeds. In kind it is functional, organism-based.
Take `CCOC(=O)/C=C(\C)C[C@H]1OC[C@@H](C/C=C/[C@@H](C)[C@H](C)O)CO1`: the outcome was inactive.
On the same count and under the same terms, as for `CCOC(=O)/C=C(\C)C[C@H]1OC[C@H](C/C=C/[C@@H](C)[C@H](C)O)CO1`, the entry is “inactive”.
As for `CCOC(=O)/C=C(/C)C[C@H]1OC[C@H](C/C=C/[C@@H](C)[C@H](C)O)CO1`, the result was inactive.
`COC(=O)/C=C(\C)Cc1cccc(C/C=C/[C@@H](C)[C@H](C)O)c1`: the result was inactive.
In the case of `CCOC(=O)c1cccc(-c2cccc(C/C=C/[C@@H](C)[C@H](C)O)c2)c1`, the result was inactive.
Regarding `COC(=O)/C=C(\C)Cc1cccc(C[C@@H]2O[C@H]2[C@@H](C)[C@H](C)O)c1`, the result was inactive.
The same measure, in the same setting: in the case of `COC(=O)/C=C(/C)Cc1cccc(C[C@@H]2O[C@H]2[C@@H](C)[C@H](C)O)c1` it was “inactive”.
`COC(=O)/C=C(/C)Cc1cccc(C/C=C/[C@@H](C)[C@H](C)O)c1`: the result was inactive.
Still for that read-out and setting: as for `COC(=O)/C=C(/C)Cc1cccc(C[C@H]2O[C@@H]2[C@@H](C)[C@H](C)O)c1`, the entry is “inactive”.
With `CCOC(=O)c1cccc(-c2cccc(C[C@@H]3O[C@H]3[C@@H](C)[C@H](C)O)c2)c1`, the result was inactive.
As for `COC(=O)/C=C(\C)Cc1cccc(C[C@H]2O[C@@H]2[C@@H](C)[C@H](C)O)c1`, the result was inactive.
Regarding `CCOC(=O)c1cccc(-c2cccc(C[C@H]3O[C@@H]3[C@@H](C)[C@H](C)O)c2)c1`, the result was inactive.

Tested on in a further test: not listed separately
The test can be described thus: Herbicidal activity against broadleaf weeds. In kind it is functional.
Regarding `CCOC(=O)/C=C(\C)C[C@H]1OC[C@@H](C/C=C/[C@@H](C)[C@H](C)O)CO1`, the result was inactive.
`CCOC(=O)/C=C(\C)C[C@H]1OC[C@H](C/C=C/[C@@H](C)[C@H](C)O)CO1`: the result was inactive.
Same read-out and setting: as for `CCOC(=O)/C=C(/C)C[C@H]1OC[C@H](C/C=C/[C@@H](C)[C@H](C)O)CO1`, the entry is “inactive”; as for `COC(=O)/C=C(\C)Cc1cccc(C/C=C/[C@@H](C)[C@H](C)O)c1`, “inactive”.
Consider `CCOC(=O)c1cccc(-c2cccc(C/C=C/[C@@H](C)[C@H](C)O)c2)c1`, for which the outcome was inactive.
Turning to `COC(=O)/C=C(\C)Cc1cccc(C[C@@H]2O[C@H]2[C@@H](C)[C@H](C)O)c1`, the outcome was inactive.
Consider `COC(=O)/C=C(/C)Cc1cccc(C[C@@H]2O[C@H]2[C@@H](C)[C@H](C)O)c1`, for which the outcome was inactive.
On to `COC(=O)/C=C(/C)Cc1cccc(C/C=C/[C@@H](C)[C@H](C)O)c1`, for which the outcome was inactive.
In the case of `COC(=O)/C=C(/C)Cc1cccc(C[C@H]2O[C@@H]2[C@@H](C)[C@H](C)O)c1`, the result was inactive.
For `CCOC(=O)c1cccc(-c2cccc(C[C@@H]3O[C@H]3[C@@H](C)[C@H](C)O)c2)c1`, the result was inactive.
The same measure, in the same setting: as for `COC(=O)/C=C(\C)Cc1cccc(C[C@H]2O[C@@H]2[C@@H](C)[C@H](C)O)c1`, the entry is “inactive”; as for `CCOC(=O)c1cccc(-c2cccc(C[C@H]3O[C@@H]3[C@@H](C)[C@H](C)O)c2)c1`, “inactive”.
